One series has as its system pentosidine formation. Put plainly: AGEs (pentosidine) formation inhibiting effect in plasma from dialysis patients. The series is classed as biochemical, human. The settings on record: for Pentosidine formation: 5 mM; for pentosidine formation suppression: plasma from the patients with dialysis. On the procedure: Before dialysis, blood samples were obtained from non-diabetic volunteer dialysis patients with renal failure, and fresh heparinized plasma samples were prepared therefrom Pooled plasma obtained from several patients (n=3˜5) was served to the test. 4-(5-phenyltetrazol-1-ylmethyl)-morpholine (Compound 1), 5-methyl-1-(5-phenyltetrazol-1-ylmethyl)-3a,6a-dihydro-1H-pyrrolo[3,4-d][1,2,3]triazole-4,6-dione (Compound 2) or (5-phenyltetrazol-1-yl)methanol (Compound 3) adjusted to a designed concentration ([…]), in DMSO solution (100 μl), was added to the pooled plasma (900 μl) and incubated at 37° C. for 7 days in the presence of air. Then, the amount of pentosidine was measured to estimate the suppressive effect on the glycation of protein.
Measurement of the amount of pentosidine was made as follows: to each incubated sample (50 μL) was added an equal volume of 10% trichloroacetic acid, followed by centrifugation at 5000 g for 5 minutes; after removal of the supernatant, the pellet was washed by 5% trichloroacetic acid (300 μL); the pellet was dried under reduced pressure and then subjected to hydrolysis in 6N HCI solution (100 μL) at 110° C. under nitrogen atmosphere for 16 hours; to the hydrolysate, 5N NaOH (100 μL) and 0.5 M phosphate buffer (pH 7.4) (200 μL) were added, followed by filtration through a porefilter with a pore size of 0.5 μm and dilution with PBS. The concentration of free pentosidine was determined by reversed-phase HPLC using a fluorescence detector (RF-10A, Shimazu Seisakusho) (Miyata, T. et al.: Proc. Natl. Acad. Sci. USA, 93, 2353-2358, 1996). The effluent was monitored at 335/385 nm of excitation/emission wavelength. Synthetic pentosidine was used as the standard. The detection limit of pentosidine was 0.1 pmol/mg protein.
The inhibiting effect was estimated by comparing with positive control (aminoguanidine and pyridoxamine (Sigma)) reacted in the same manner as 4-(5-phenyltetrazol-1-yl-methyl)-morpholine (Compound 1), 5-methyl-1-(5-phenyltetrazol-1-ylmethyl)-3a,6a-dihydro-1H-pyrrolo[3,4-d][1,2,3]triazole-4,6-dione (Compound 2) and (5-phenyltetrazol-1-yl)methanol (Compound 3).

Series [1] is described as follows: Vitamin B6 (PLP; pyridoxal phosphate) trapping. The series is classed as biochemical. The settings on record: 500 μM compound, 50 μM PLP, PBS. Here is the method: To a solution of vitamin B6, the compound of this invention is added, and after a certain period of time, an amount of vitamin B6 remained is determined.
4-(5-phenyltetrazol-1-ylmethyl)-morpholine (Compound 1), 5-methyl-1-(5-phenyltetrazol-1-ylmethyl)-3a,6a-dihydro-1H-pyrrolo[3,4-d][1,2,3]triazol-4,6-dione (Compound 2) and (5-phenyltetrazol-1-yl)methanol (Compound 3) as well as aminoguanidine as the positive control were each dissolved in DMSO in a designed concentration to make a sample solution. DMSO itself was used as the negative control. In addition, pyridoxal phosphate (PLP) was dissolved in purified-water to make a designed concentration. PBS was added to each of the test compound, the positive control and the negative control, to make a final concentration of 500 μM. The PLP solution as above prepared was added to each of the resultant solution to make a final concentration of 50 μM for preparation of the PLP reaction solution. Using HPLC, the amount of PLP in the PLP reaction solution was determined after 0.1 and 10 hours, from which the PLP trapping amount of each test compound was ascertained.
The analysis of PLP using HPLC was carried out by separation with reverse-phase C18 column (4.6×250 mm, 5 μm; Waters) and by using a fluorescence detector (RF-10A; Shimazu Seisakusho; excitation wavelength, 300 nm and fluorescence wavelength, 400 nm). In the mobile phase, the flow rate was 0.6 mL/min and the concentration of buffer B was varied from 0% to 3% in 25 minutes (buffer A: 0.10% trifluoroacetic acid; buffer B: 80% acetonitrile containing 0.08% trifluoroacetic acid).

Series [2] in a line: Suppressing effect on the nitration of tyrosine with peroxynitrite. As to conditions: in comparison with pyridoxamine as positive control; 0.1, 0.5, 2.5 and 5 mM. The series is classed as biochemical. Here is the method: According to the method of Pannala, A.S. et al. (Free Radic. Biol. Med., 24:594-606, 1998), the examination was carried out. Namely, tyrosine (final concentration: 100 μM), the test compound (final concentration: 0.1, 0.5, 2.5 and 5 mM) and peroxynitrite (Dojin Kagaku) (final concentration: 500 μM) were dissolved in 200 mM of phosphate buffer (pH7.4) (liquid volume 500 μL) and incubated at 37° C. for 15 minutes. After incubation, the nitrotyrosine formation was determined with HPLC in the following manner: after a predifined time, the reaction mixture (20 μL) was injected onto HPLC, separation was made with C18 column (4.6×250 mm, 5 μm: Waters) and the detection was effected using a ultraviolet detector (RF-10A: Shimazu Seisakusho) at a wavelength of 280 nm. In the mobile phase, the flow rate was 0.6 mL/min and the concentration of buffer B was varied from 5.0% to 30% in 30 minutes (buffer A: 0.10% trifluoroacetic acid; buffer B: 80% acetonitrile containing 0.08% trifluoroacetic acid). 4-Hydroxy-3-nitrobenzoic acid (100 μM) was used as the internal standard.

A short description of series [3]: Suppressive effect on the hydroxylation of phenylalanine with hydroxy radical. The series is classed as biochemical. As to conditions: in comparison with pyridoxamine as positive control; 0.1, 0.5, 2.5 mM. On the procedure: Phenylalanine (final concentration: 1 mM), test compound (final concentration: 0.1, 0.5, 2.5 mM), hydrogen peroxide (final concentration: 5 mM) and cupric sulfate (final concentration: 0.1 mM) were dissolved in 200 mM of phosphate buffer (pH7.4) (total volume 500 μL), followed by incubation at 37° C. for 4 hours. Then, DTPA (final concent-ration: 1 mM) and 260 unit of catalase were added thereto to interrupt the reaction. The amounts of o-tyrosine and m-tyrosine formed were determined by HPLC in the following manner: after a designed period of time, the reaction mixture was diluted to 100 folds; 20 μL of the dilution was injected onto HPLC, separation was made with C18 column (4.6×250 mm, 5 μm; Nomura Kagaku) and detection was effected using a fluorescence detector (RF-10A: Shimazu Seisakusho) under the condition of an excitation wavelength of 275 nm and a fluorescence wavelength of 305 nm. In the mobile phase, the flow rate was 0.6mL/min and the concentration of buffer B was varied from 6.5% to 10% in 25 minutes (buffer A: 0.10% trifluoroacetic acid; buffer B: 80% acetonitrile containing 0.08% trifluoroacetic acid).

The test system of a further series is ICR mice. In words: Acute toxicity examination, single oral administration to mouse. As to conditions: in vivo, po. On the procedure: (§1) For 4-(5-phenyltetrazol-1-ylmethyl)-morpholine (compound 1) and (5-phenyltetrazol-1-yl) methanol (compound 3), acute toxicity test was carried out using mice. Each compounds were suspended in carboxymethyl cellulose in given concentration to prepare sample for oral administration. Then single oral administration was done to mouse. The dose is 100, 250, 500, 1000 and 2000 mg/kg. Five ICR mice (male , 8 weeks aged, closed colony) were used in each group. The test material was administrated to determine LD50 value.

Assay in series [4]: as above
As to conditions: male, in vivo, ICR mice, single oral administration. On the procedure: as §1

Series [5] can be described thus: Absorbability examination, oral administration to rat. The series is classed as in vivo. As to conditions: 50 mg/kg oral. On the procedure: For 4-(5-phenyltetrazol-1-yl methyl)-morpholine (compound 1) and (5-phenyltetrazol-1-yl)methanol (compound 3), their sorbability were examined. Each compounds are suspended in carboxymethyl cellulose in given concentration to prepare sample for oral administration. Then each samples were administered in the ratio of 50 mg/kg to rat using sonde. Five Wister rats (male, 8 weeks aged, closed colony) were used every one group. At one hour, 2 hours, 6 hours and 24 hours after the administration of compound, blood was obtained. The obtained blood samples were immediately cetrifuged at 3000 rpm for 15 minutes to obtain the blood plasma and the concentration of the compound in the specimen was quantitated by HPLC. Briefly, to 100 μL of obtained blood plasma was added to 200 μL of acetonitrile, centrifuged at 12000 rpm for 10 minutes to obtain supernatant, deproteinized and served to HPLC. The measuring condition of HPLC was selected from suitable condition for each compounds to separate and quantify. For example, in case of 4-(5-phenyltetrazol-1-yl methyl)-morpholine (compound 1), separated with reverse-phase C18 column (4.6×250 mm, 5 μm: Waters), and then detected using ultraviolet detector (RF-10A: Shimazu Seisakusho) at 240 nm of wavelength to quantify. In mobile phase, the flow rate is 0.8 mL/min and solvent is water: acetonitrile.

[6] abbreviates: plasma from dialysis patients, 37° C., 7 days, DMSO negative control 2.960.

Eight molecules from patent publication US20070161691A1, “Modified-protein formation inhibitor” (TOKAI UNIVERSITY, priority 2003, published 2007) can be followed below.

Molecules are shown by their SMILES. Where only a bound is given, the exact number is not on record here.

With `N=C(N)NN` [Aminoguanidine, aminoguanidine, reference compound], the “Pentosidine formation” value in the series with pentosidine formation (setting [6]) is 2.604 nmol/mL. In addition, in series [1], the PLP trapping entry is recorded as “remarkable PLP trapping”.

Consider `CN1C(=O)C2N=NN(Cn3nnnc3-c3ccccc3)C2C1=O` (stereo not drawn) [Compound 2, 5-methyl-1-(5-phenyltetrazol-1-ylmethyl)-3a,6a-dihydro-1H-pyrrolo[3,4-d][1,2,3]triazole-4,6-dione], for which the “Pentosidine formation” value in the series with pentosidine formation (setting [6]) worked out at 0.320 nmol/mL. For the same molecule, in the series with pentosidine formation, the “pentosidine formation suppression” value is listed as “suppressed remarkably”. Besides, the “nitrotyrosine formation, suppression” value in series [2] is listed as “suppressed remarkably”. For the same molecule, the PLP trapping result in series [1] was “none”. In addition, the “hydroxylation of phenylalanine with hydroxy radical, suppression” value in series [3] is “suppressed remarkably”.

Turning to `c1ccc(-c2nnnn2CN2CCN(Cn3nnnc3-c3ccccc3)CC2)cc1` [Compound 7, 1,4-bis-(5-phenyltetrazol-1-ylmethyl)-piperazine], the Pentosidine formation in the series on pentosidine formation (same manner as Table 2) came out at 0.103 nmol/mL. Further, in the series on pentosidine formation, the “pentosidine formation suppression” value is reported as “suppressed remarkably”.

Consider `OCn1nnnc1-c1ccccc1` [Compound 3, (5-phenyltetrazol-1-yl)-methanol], for which the “toxicity” value with ICR mice is “lower toxicity”. In addition, the median lethal dose (LD50) in series [4] is > 2000 mg/kg. Further, the “sorbability (plasma concentration after oral administration)” value in series [5] is on record as “good sorbability”. The “Pentosidine formation” value in the series with pentosidine formation (setting [6]) came to 0.026 nmol/mL. In addition, in the series on pentosidine formation, the “pentosidine formation suppression” value is “suppressed remarkably”. Further, in series [2], the “nitrotyrosine formation, suppression” value was “suppressed remarkably”. Moreover, in series [1], the PLP trapping result was “none”. Moreover, the “hydroxylation of phenylalanine with hydroxy radical, suppression” value in series [3] was “suppressed remarkably”.

For the molecule `Cc1ncc(CO)c(CN)c1O` [Pyridoxamine, pyridoxamine, reference compound], the “Pentosidine formation” value in the series on pentosidine formation (setting [6]) came to 2.280 nmol/mL.

In the case of `c1ccc(-c2nnnn2CN2CCSCC2)cc1` [Compound 6, 4-(5-phenyltetrazol-1-ylmethyl)-thiomorpholine], the Pentosidine formation in the series on pentosidine formation (same manner as Table 2) was determined as 0.149 nmol/mL. In the series with pentosidine formation, the “pentosidine formation suppression” value was “suppressed remarkably”.

In the series on pentosidine formation (same manner as Table 2), `CN1CCN(Cn2nnnc2-c2ccccc2)CC1` [Compound 5, 1-methyl-4-(5-phenyltetrazol-1-ylmethyl)-piperazine] gave a Pentosidine formation of 0.201 nmol/mL. In addition, in the series with pentosidine formation, the “pentosidine formation suppression” value is recorded as “suppressed remarkably”.

In the series on pentosidine formation (same manner as Table 2), `c1ccc(-c2nnnn2CN2CCNCC2)cc1` [Compound 4, 1-(5-phenyltetrazol-1-ylmethyl)-piperazine] gave a Pentosidine formation of 0.234 nmol/mL. In the series on pentosidine formation, the “pentosidine formation suppression” value was “suppressed remarkably”.

What is called LD50 is the dose at which mortality reaches 50%. High values mean a less toxic substance, low ones a more toxic substance.
